Measured values: patent US20210221787A1, “NIRAPARIB SOLID STATE FORM” (JOHNSON MATTHEY PUBLIC LIMITED COMPANY, priority 2018, published 2021)
Like-named read-outs stand apart in the source and are kept apart here.

Experiments:
[1] = for extended stability (retention of Form A by XRPD): with and without foil bag
Source text: “Stabilized” as used herein relates to an anhydrous form of the p-toluenesulfonic acid salt of niraparib that is capable of retaining its form for up to at least 4 months when held in storage in a sealed container with desiccant, with or without being stored in a foiled bag.
XRPD patterns are obtained using a Bruker D8 Advance equipped with a Cu Ka radiation source (λ=1.54 Å), a 9-position sample holder and a LYNXEYE super speed detector. Samples are placed on air sensitive silicon plate holders with zero-background with domes for analysis. One skilled in the art would recognize that the ° 2 θ values and the relative intensity values are generated by performing a peak search on the measured data and the d-spacing values are calculated by the instrument from the ° 2 θ values using Bragg's equation. One skilled in the art would further recognize that the relative intensity for the measured peaks may vary because of sample preparation, orientation and instrument used, for example.

[2] = cited from earlier work

SMILES	extended stability ([1]; Form A not made under anhydrous conditions (Examples 1-3), compared with Form A made under anhydrous conditions)	extended stability (retention of Form A by XRPD) ([1]; made under anhydrous conditions (Example 4 or 5), sealed vials with desiccant, ambient, 30° C./65% RH or 40° C./75% RH)	extended stability (retention of Form A by XRPD) ([1]; stored only in sealed vials, without desiccant)	form conversion on DVS ([2]; DVS up to 95% RH)	hygroscopicity (DVS curve) ([2]; DVS)	DVS weight gain ([2]; up to 95% RH)
Cc1ccc(S(=O)(=O)O)cc1.NC(=O)c1cccc2cn(-c3ccc([C@@H]4CCCNC4)cc3)nc12 [Form A, p-toluenesulfonic acid salt of niraparib]	does not exhibit extended stability	at least 4 months	do not exhibit the extended stability	–	–	–
Cc1ccc(S(=O)(=O)O)cc1.NC(=O)c1cccc2cn(-c3ccc([C@@H]4CCCNC4)cc3)nc12 [Form III, p-toluenesulfonic acid salt of niraparib]	–	–	–	converted to the monohydrate	very hygroscopic	approximately 15.8%
